Source: patent publication US4174451A, “2-Furyl-(3,4-dimethyl-2-pyridyl)-carbinol” (Laboratorios Made, S.A., priority 1977, dated 1979)

What was measured:
Swiss I.C.R. albino mice [1] = assay: Chemical analgesia, acetic acid writhing technique; format: in vivo; conditions: for No. of writhes x ± S.E.M.: 30 minutes before 0.25 ml of 1% acetic acid i.p., counted twenty minutes later, batches of 10 mice, control 78.4 ± 6.7
Experimental: The analgesic effect was studied in Swiss I.C.R. albino mice, by the acetic acid writhing technique. Batches of 10 mice were made.
The products under study were administered intraperitoneally, and 30 minutes later 0.25 ml of 1% acetic acid was injected intraperitoneally. A batch of control animals received only the acetic acid. Twenty minutes following administration of the acetic acid, the number of writhes in each mouse was counted.

Swiss I.C.R. albino mice [2] = assay: Thermal analgesia, 55° C. Hot Plate technique; format: in vivo; conditions: for Jumping time in sec. x ± S.E.M.: 30 minutes after administration, batches of 10 mice, mean ± S.E.M., control 63.7 ± 4.54; for Signif. of differences vs Control (jumping time): p value
Experimental: The thermal analgesic effect was studied in Swiss I.C.R. albino mice. The 55° C. Hot Plate technique was used. Batches of 10 mice were used.
The products under study were administered intraperitoneally, and after 30 minutes the mice were placed on the hot plate, count being made of the time, in seconds, it took them to jump. Batches of control animals were injected only with distilled water.

[3] = Acute toxicity in mice (LD50, Litchfield-Wilcoxon test); parameters: species or system Swiss I.C.R. albino mice; conditions: mouse, in vivo, ip; intraperitoneal, deaths counted 48 hours after treatment, both sexes, fasted 24 hours
Experimental: An acute toxicity study was made on Swiss I.C.R. albino mice of both sexes of 30± 2 g in weight, kept without food for 24 hours prior to the experiment. Ambient temperature and relative humidity were kept constant. The products were administered intraperitoneally, the number of deaths being counted 48 hours after treatment. The lethal dose (LD50) was calculated by the Litchfield-Wilcoxon test.

[4] = p value, 30 mg/kg intraperitoneal
[5] = in words, compared with dextropropoxyphene

| Compound | No. of writhes x ± S.E.M. (Swiss I.C.R. albino mice [1]; 30 mg/kg intraperitoneal) | Signif. of differences vs Control (writhes) (Swiss I.C.R. albino mice [1]; [4]) | Jumping time in sec. x ± S.E.M. (Swiss I.C.R. albino mice [2]; 30 mg/kg intraperitoneal) | Signif. of differences vs Control (jumping time) (Swiss I.C.R. albino mice [2]; 30 mg/kg intraperitoneal) | LD50 at 48 h [3] | chemical analgesic action (Swiss I.C.R. albino mice [1]; [5]) | Signif. of differences vs Dextroprop. (writhes) (Swiss I.C.R. albino mice [1]; p value, 30 mg/kg intraperitoneal, vs dextropropoxyphene 30 mg/kg) | Signif. of differences vs Dextroprop. (jumping time) (Swiss I.C.R. albino mice [2]; 30 mg/kg intraperitoneal, vs dextropropoxyphene 30 mg/kg, N.S.) | thermal analgesic action (Swiss I.C.R. albino mice [2]; [5]) |
| --- | --- | --- | --- | --- | --- | --- | --- | --- | --- |
| CCC(=O)O[C@](Cc1ccccc1)(c1ccccc1)[C@H](C)CN(C)C [Dextropropoxyphene, dextropropoxyphene, reference compound] | 8.4 ± 4.04 | < 0.00005 | 116.8 ± 12.43 s | < 0.01 | – | – | – | – | – |
| Cc1ccnc(C(O)c2ccco2)c1C (stereo not shown) [Product I, 2-furyl-(3,4-dimethyl-2-pyridyl)-carbinol] | 53 ± 6.07 | < 0.02 | 110.1 ± 13.28 s | < 0.005 | 309 mg/kg | chemical analgesic action, but of lesser intensity than that of dextropropoxyphene | < 0.00005 | N.S. | same thermal analgesic action as the dextropropoxyphene |
